Measured values as given in patent US8383888B1, “Plants and plant products useful for biofuel manufacture and feedstock, and methods of producing same” (University of Kentucky Research Foundation, priority 2008, dated 2013).

Columns and labels:
[1] = tested on: Arabidopsis thaliana; assay: Growth of plants on plates containing isoxaben; assay type: in vivo; settings: 2 nM isoxaben in plates
Experimental: Studies with a plant (Arabidopsis thaliana) expressing a CESA-1 with a A903V mutation (“qxr” or “ags”) have shown significant reorganization of the mutant cell wall. Feedback between the gene mutation and cell wall structure was determined by FTIR analysis of the polysaccharide fingerprint region. The following conclusions were ascertained; firstly, the qxr mutant has aberrant root hair formation, which can be observed using light microscopy and have been described for cell wall gene deletion alleles. The highly elongated cell shape of root hairs has been used as model to define molecular players in cell elongation and a plausible explanation for the altered root hair phenotype is consistent with a defect in cell wall structure. […] Next, the inventors explored whether treating qxr mutants with the cellulose inhibitor isoxaben at minute doses induced a synergistic effect.

[2] = tested on: Arabidopsis ixr mutants; settings: cited from earlier work
[3] = tested on: plants; settings: previous studies; cited from earlier work

In the case of `CCC(C)(CC)c1cc(NC(=O)c2c(OC)cccc2OC)on1` [isoxaben, N-(3-[1-ethyl-1-methylpropyl]-5-isoxazolyl)-2,6,dimethoxybenzamide], the “effect on qxr mutant plants” value ([1]; qxr (CESA-1 A903V)) is listed as “dramatically swollen organs”, the “effect on wild type plants (swollen organs)” value ([1]; wild type) is listed as “did not” and the “resistance of mutants to the herbicide” value ([2]; ixr1-1 and ixr1-2 mutations) is listed as “high level of resistance”. The “drug tolerance of ixr1-1 relative to wild type” value ([2]; ixr1-1 homozygotes) was “approximately 300 times”, the “resistance of mutants to the cellulose synthesis inhibitor” value ([2]; ixr1-2 and ixr2-1, forward chemical genetics screen) was “conferring resistance” and the lethal dose [3] was 5 nM.
